Experimental data from US11932612B1, “6-(5-(3-fluorophenyl)-4-phenyl-4H-1,2,4-triazol-3-ylthio)hexanoic acid as an antimicrobial compound” (KING FAISAL UNIVERSITY, priority 2023, dated 2024).

How the values were obtained:
[1] = test system: Bacillus cereus; test: Agar plate disc-diffusion, antibacterial inhibition zone; type: cell-based; conditions: nutrient agar, 37° C., 48 h, DMSO zone subtracted
Method: (§1) The agar plate disc-diffusion method was applied. […] The discs were then placed onto the surface of agar plates (nutrient agar for bacteria and Sabouraud's dextrose agar for fungi) seeded with the test organism. Each plate contained 15 mLof the agar medium, previously seeded with 0.2 mL of the broth culture of each organism pregrown for 18 h. The plates were incubated at 37° C. for 48 h, and 72 h for fungi. The inhibition zones was measured in mm. Discs impregnated with DMSO were used as a control, and its inhibition zone was subtracted from the tested compound actual inhibition zone.

[2] = test system: Escherichia coli; test: as above; type: cell-based; conditions: nutrient agar, 37° C., 48 h, DMSO zone subtracted
Method: as §1

[3] = test system: Pseudomonas aeruginosa; test: as above; type: cell-based; conditions: nutrient agar, 37° C., 48 h, DMSO zone subtracted
Method: as §1

[4] = test system: Staphylococcus aureus; test: as above; type: cell-based; conditions: nutrient agar, 37° C., 48 h, DMSO zone subtracted
Method: as §1

[5] = test system: Aspergillus flavus; test: Agar plate disc-diffusion, antifungal inhibition zone; type: cell-based; conditions: Sabouraud's dextrose agar, 37° C., 72 h, DMSO zone subtracted
Method: as §1

[6] = test system: Chrysosporium keratinophilum; test: as above; type: cell-based; conditions: Sabouraud's dextrose agar, 37° C., 72 h, DMSO zone subtracted
Method: as §1

[7] = A = concentration of comp. = 10,000 μL
[8] = B = concentration of comp. = 30,000 μL
[9] = C = concentration of comp. = 50,000 μL

O=C(O)CCCCCSc1nnc(-c2cccc(F)c2)n1-c1ccccc1 [III, 6-(5-(3-fluorophenyl)-4-phenyl-4H-1,2,4-triazol-3-ylthio)hexanoic acid]
inhibition zone, Bacillus Cereus [1, 7]: 26 mm | inhibition zone, Bacillus Cereus [1, 8]: 30 mm | inhibition zone, Bacillus Cereus [1, 9]: 41 mm | inhibition zone, Escherichia coli [2, 7]: 27 mm | inhibition zone, Escherichia coli [2, 8]: 34 mm | inhibition zone, Escherichia coli [2, 9]: 56 mm | inhibition zone, Pseudomonas aeruginosa [3, 7]: 24 mm | inhibition zone, Pseudomonas aeruginosa [3, 8]: 26 mm | inhibition zone, Pseudomonas aeruginosa [3, 9]: 45 mm | inhibition zone, Staphylococcus aureus [4, 7]: 22 mm | inhibition zone, Staphylococcus aureus [4, 8]: 25 mm | inhibition zone, Staphylococcus aureus [4, 9]: 30 mm | inhibition zone, Aspergillus flavus [5, 7]: 21 mm | inhibition zone, Aspergillus flavus [5, 8]: 27 mm | inhibition zone, Aspergillus flavus [5, 9]: 37 mm | inhibition zone, Chrysosporium keratinophilum [6, 7]: 25 mm | inhibition zone, Chrysosporium keratinophilum [6, 8]: 28 mm | inhibition zone, Chrysosporium keratinophilum [6, 9]: 46 mm | melting point: 164 °C
